Laboratory results as given in patent US4327178A, “Urinary kallikrein assay: specific substrates and assay method” (University of Miami, priority 1981, dated 1982).
Each block holds one compound with its values, some of them ahead of it. Where a SMILES comes first, the peptide text is derived from it. The star is where a group is joined. (3H)benzylamide = C-terminal benzylamide carrying tritium label; (3H)anilide = C-terminal anilide carrying tritium label; pNA = O=[N+]([O-])c1ccc(N*)cc1; Bz = O=C(c1ccccc1)*; X2 = Ic1cccc(CN*)c1; X3 = Ic1ccc(CN*)cc1; X1 = Ic1ccc(N*)cc1

Experiments:
Format in all cases: biochemical
human urinary kallikrein [1] = biological target: T1, human urinary kallikrein (Homo sapiens, UniProt P06870); test: Assay of human urinary kallikrein: suitability as substrate (in words)
T1 construct: dialyzed or gel-filtered human urine in the general A1 assay
Protocol: Human urine is treated to remove low molecular weight impurities, either by overnight dialysis against 0.9%(w/v) NaCl or by gel filtration. A typical reaction mixture may contain 50 μl dialyzed urine and 0.1 μCi of substrate at a final concentration of 20 ng/ml buffered with 0.1 M tris-HCl, pH 9.5, in a total reaction volume of 100 μl. Reaction tubes are incubated at 37° C. for two hours. Variations of incubation time and temperature for the purpose of increasing or decreasing the amount of product formed are known expedients within the scope of ordinary skill in the art. Reactions may be stopped by any technique which causes rapid termination of the enzyme-catalyzed reaction without significant alteration of the product concentration. Use of an excess volume of base, e.g., 1.0 ml of 0.1 NaOH, is preferred. The product is separated from the reaction mixture by extraction with a measured volume of an aprotic solvent such as toluene or ether, or by other suitable means such as ion-exchange chromatography. Where solvent extraction is employed, an aliquot of the solvent (containing reaction product) may be sampled for radioactivity counting. Scintillation counting is preferred for counting tritium, and use of an extracting solvent such as toluene or ether permits direct transfer of a solvent aliquot to the scintillation fluid.
A standard curve may be constructed substituting purified kallikrein for dialyzed urine. A unit of enzyme is defined herein as that amount required to hydrolyze substrate at an initial rate of 1% per minute at 37° C. The foregoing definition is applicable where the concentration of substrate is well below Km such that hydrolysis is first order with respect to substrate concentration. The number of kallikrein units/ml of dialyzed urine is given by [formula] where 1.0 ml of solvent is used for the extraction and an aliquot of 0.5 ml is taken for counting. The blank c.p.m. value is determined in a control reaction lacking enzyme but otherwise treated identically.

human urinary kallikrein [2] = biological target: T1, human urinary kallikrein; test: Km and Vmax of substrates with purified human urinary kallikrein (Lineweaver-Burk double reciprocal plot)
Protocol: The double reciprocal plot method of H. Lineweaver and D. Burk (J.Am.Chem.Soc. 56, 658 (1934)) was used to estimate Km and Vmax for these substrates. Purified human urinary kallikrein prepared as described by Oza, N. B. and Ryan, J., supra, was used in this study. Reactions were conducted at 37° C. for 15 minutes with 62.5 ng of enzyme and the indicated amount of substrate, in 0.05 M tris-HCl pH 9.5. Reactions were terminated by the addition of a nine-fold excess of 0.1 N NaOH. The ^3 H-labeled product was separated from substrate by extraction with an equal volume (1 ml) of toluene. A 0.5 ml aliquot of the toluene phase was transferred to a scintillation vial containing a toluene-based scintillation fluid and counted. Results for H-ProPheArg-[^3 H]-benzylamide are shown in FIG. 1, and for H-ProPheArg-[^3 H]anilide in FIG. 2. The units of l/v were nmol^-1 min. Units of l/S were μmole^-1.liter.

human urinary kallikrein [3] = biological target: T1, human urinary kallikrein; test: Relative activity of halogenated (4-iodoanilide) substrates, spectrophotometric standard assay; settings: 150 nmol substrate in 0.7 ml 0.05 tris-HCl, pH 8.1, 37° C.
Protocol: Unlabeled halogenated 4-iodoanilide substrates, prepared essentially as described in Example 5, were compared with respect to reaction rate with human urinary kallikrein in a standard assay. Each substrate, 150 nmol, was incubated with purified human urinary kallikrein in 0.7 ml of 0.05 tris-HCl, pH 8.1 at 37° C. At timed intervals, 100 μl of reaction mixture was added to 1.0 ml of 0.1 N NaOH. The resulting solution was extracted with CHCl3 and the organic phase was evaporated to dryness. The residue was dissolved in buffer and examined spectrophotometrically in the 240-300 nm range, where a difference spectrum between substrate and product is measureable. The results are shown in Table 1, with rates of hydrolysis expressed as nmol/min/mg enzyme.

[4] = biological target: purified urinary kallikrein (Homo sapiens, UniProt P06870); test: Urinary kallikrein-catalyzed hydrolysis of N-alpha-acylated substrates relative to non-acylated compounds; settings: approximately 20 nM substrate, 60 ng purified urinary kallikrein, 100 μl 0.1 M tris HCl pH 9.5, 37° C., 15 minutes; conditions optimized for non-acylated substrate
Thrombin = test: Reaction specificity: hydrolysis by serine proteases; settings: printed on the pH 9.5 line (pH 7.5 line blank); No hydrolysis = no measureable reaction with a maximum of 0.5 mg/ml enzyme; 20 nM substrate, 37° C., 15 minutes
Protocol: (§1) The hydrolysis of H-ProPheArg-[^3 H]benzylamide by a series of serine proteases was measured. Reactions were carried out using 20 nM substrate in 0.1 M tris-HCl buffer, pH 7.5 or pH 9.5, at 37° C. for 15 minutes in the presence of varied amounts of enzyme. The results are shown in Table 2, expressed as the amount of enzyme necessary to hydrolyze 10% of the substrate under the given conditions. "No hydrolysis" is used to denote no measureable reaction with a maximum of 0.5 mg/ml enzyme.

α-Chymotrypsin = test: as above; settings: printed on the pH 9.5 line (pH 7.5 line blank); No hydrolysis = no measureable reaction with a maximum of 0.5 mg/ml enzyme; 20 nM substrate, 37° C., 15 minutes
Protocol: as §1

Plasmin = test: as above; settings: 20 nM substrate, 0.1 M tris-HCl, 37° C., 15 minutes
Protocol: as §1

Trypsin = test: as above; settings: 20 nM substrate, 0.1 M tris-HCl, 37° C., 15 minutes
Protocol: as §1

Urokinase = test: as above; settings: printed on the pH 9.5 line (pH 7.5 line blank); No hydrolysis = no measureable reaction with a maximum of 0.5 mg/ml enzyme; 20 nM substrate, 37° C., 15 minutes
Protocol: as §1

human urinary kallikrein [5] = biological target: T1, human urinary kallikrein; test: as above; settings: 20 nM substrate, 0.1 M tris-HCl, 37° C., 15 minutes
Protocol: as §1

[6] = 62.5 ng purified enzyme, 0.05 M tris-HCl pH 9.5, 37° C., 15 minutes

Sequence of purified urinary kallikrein (P06870 25-262): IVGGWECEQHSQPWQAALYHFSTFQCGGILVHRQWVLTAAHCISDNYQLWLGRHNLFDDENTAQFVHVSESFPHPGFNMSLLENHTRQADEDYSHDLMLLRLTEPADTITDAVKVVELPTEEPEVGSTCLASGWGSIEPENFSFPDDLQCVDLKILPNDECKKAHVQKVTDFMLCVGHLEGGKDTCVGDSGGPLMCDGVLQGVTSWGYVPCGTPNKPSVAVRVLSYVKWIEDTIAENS
T1 sequence (P06870 25-262): as above

Compound: N=C(N)NCCC[C@H](NC(=O)[C@@H](N)Cc1ccccc1)C(=O)Nc1ccc(I)cc1 [Phe--Arg--4-iodoanilide]
Rate of Hydrolysis (human urinary kallikrein [3]): Nil

Compound: [3H]c1cccc(CNC(=O)[C@H](CCCNC(=N)N)NC(=O)[C@H](Cc2ccccc2)NC(=O)[C@@H]2CCCN2C(=O)c2ccccc2)c1 [Benzoyl-ProPheArg-[^3 H]benzylamide]
rate of hydrolysis relative to the non-acylated compounds [4]: about 1/2

Compound: H-PheSerProPheArg-[^3 H] anilide (H-FSPFR-{(3H)anilide})
activity as substrate for human urinary kallikrein (in words) (human urinary kallikrein [1]): substrates

Compound: [3H]c1cccc(CNC(=O)[C@H](CCCNC(=N)N)NC(=O)[C@H](Cc2ccccc2)NC(=O)[C@@H]2CCCN2)c1 [H-ProPheArg-[^3 H]benzylamide, H-ProPheArg-[^3 H] benzylamide]
Km (human urinary kallikrein [2]; [6]): 3 µM
Vmax (human urinary kallikrein [2]; [6]): 0.88 mmol/min/mg protein
Amount of Enzyme Required for 10% Hydrolysis (Thrombin): No hydrolysis
Amount of Enzyme Required for 10% Hydrolysis (α-Chymotrypsin): No hydrolysis
Amount of Enzyme Required for 10% Hydrolysis (Plasmin; pH 7.5): 17,200 ng
Amount of Enzyme Required for 10% Hydrolysis (Plasmin; pH 9.5): 30,600 ng
Amount of Enzyme Required for 10% Hydrolysis (Trypsin; pH 7.5): 400 ng
Amount of Enzyme Required for 10% Hydrolysis (Trypsin; pH 9.5): 1,030 ng
Amount of Enzyme Required for 10% Hydrolysis (Urokinase): No hydrolysis
Amount of Enzyme Required for 10% Hydrolysis (human urinary kallikrein [5]; pH 7.5): 265 ng
Amount of Enzyme Required for 10% Hydrolysis (human urinary kallikrein [5]; pH 9.5): 45 ng
Amount of Enzyme Required for 10% Hydrolysis (as enzyme concentration, in brackets) (human urinary kallikrein [5]; pH 9.5): 10 nM

Compound: N=C(N)NCCC[C@H](NC(=O)[C@H](Cc1ccccc1)NC(=O)[C@@H]1CCCN1)C(=O)Nc1ccc(I)cc1 [Pro--Phe--Arg--4-iodoanilide]
Rate of Hydrolysis (human urinary kallikrein [3]): 0.73 nmol/min/mg enzyme

Compound: N=C(N)NCCC[C@H](NC(=O)[C@H](Cc1ccccc1)NC(=O)[C@@H]1CCCN1C(=O)c1ccccc1)C(=O)Nc1ccc([N+](=O)[O-])cc1 [benzoyl-ProPheArg-p-nitroanilide, reference compound] (Bz-Pro-Phe-Arg-pNA)
activity as substrate for human urinary kallikrein (in words) (human urinary kallikrein [1]): inactive

Compound: N=C(N)NCCC[C@H](NC(=O)[C@H](Cc1ccccc1)NC(=O)[C@@H]1CCCN1C(=O)[C@@H](N)CO)C(=O)Nc1ccc(I)cc1 [Ser--Pro--Phe--Arg--4-iodoanilide] (H-SPFR-X1)
Rate of Hydrolysis (human urinary kallikrein [3]): 0.62 nmol/min/mg enzyme

Compound: [3H]c1cccc(CNC(=O)[C@H](CCCNC(=N)N)NC(=O)[C@H](Cc2ccccc2)NC(=O)[C@@H]2CCCN2C(=O)C2CCCC2)c1 [cyclopentylcarbonylated]
rate of hydrolysis relative to the non-acylated compounds [4]: generally similar rates

Compound: H-SerProPheArg-[^3 H]-benzylamide (H-SPFR-{(3H)benzylamide})
activity as substrate for human urinary kallikrein (in words) (human urinary kallikrein [1]): suitable substrates

Compound: N=C(N)NCCC[C@H](NC(=O)[C@H](Cc1ccccc1)NC(=O)[C@@H]1CCCN1C(=O)[C@H](CO)NC(=O)[C@@H](N)Cc1ccccc1)C(=O)Nc1ccc(I)cc1 [Phe--Ser--Pro--Phe--Arg--4-iodoanilide] (H-FSPFR-X1)
Rate of Hydrolysis (human urinary kallikrein [3]): 1.12 nmol/min/mg enzyme

Compound: H-PheSerProPheArg-[^3 H]benzylamide (H-FSPFR-{(3H)benzylamide})
activity as substrate for human urinary kallikrein (in words) (human urinary kallikrein [1]): suitable substrates

Compound: [3H]c1cccc(CNC(=O)[C@H](CCCNC(=N)N)NC(=O)[C@H](Cc2ccccc2)NC(=O)[C@@H]2CCCN2C(C)=O)c1 [acetylated]
rate of hydrolysis relative to the non-acylated compounds [4]: generally similar rates

Continued, values first:

activity as substrate for human urinary kallikrein (in words) (human urinary kallikrein [1]): suitable substrates
Compound: N=C(N)NCCC[C@H](NC(=O)[C@H](Cc1ccccc1)NC(=O)[C@@H]1CCCN1C(=O)[C@@H](N)CO)C(=O)NCc1ccc(I)cc1 [H-SerProPheArg-4-iodobenzylamide] (H-SPFR-X3)

activity as substrate for human urinary kallikrein (in words) (human urinary kallikrein [1]): excellent substrate
Vmax (human urinary kallikrein [2]; [6]): 0.39 mmol/min/mg protein
Km (human urinary kallikrein [2]; 62.5 ng purified enzyme, 0.05 M tris-HCl pH 9.5, 37° C., 15 minutes, listed as H-ProPheArg-[^3 H]-anilide): 0.8 µM
Km (human urinary kallikrein [2]; 62.5 ng purified enzyme, 0.05 M tris-HCl pH 9.5, 37° C., 15 minutes, listed as ProPheArg-[^3 H] anilide): ~0.8 µM
Vmax (human urinary kallikrein [2]; as summarised in the detailed description): approximately 0.39 mmol/min/mg
Compound: H-ProPheArg-[^3 H]anilide

activity as substrate for human urinary kallikrein (in words) (human urinary kallikrein [1]): suitable substrates
Compound: N=C(N)NCCC[C@H](NC(=O)[C@H](Cc1ccccc1)NC(=O)[C@@H]1CCCN1C(=O)[C@H](CO)NC(=O)[C@@H](N)Cc1ccccc1)C(=O)NCc1cccc(I)c1 [H-PheSerProPheArg-3-iodobenzylamide] (H-FSPFR-X2)

rate of hydrolysis relative to the non-acylated compounds [4]: 1/10
Compound: [3H]c1cccc(CNC(=O)[C@H](CCCNC(=N)N)NC(=O)[C@H](Cc2ccccc2)NC(=O)[C@@H]2CCCN2C(=O)CCC(=O)O)c1 [succinyl derivative, Succinyl-ProPheArg-[^3 H]benzylamide]

activity as substrate for human urinary kallikrein (in words) (human urinary kallikrein [1]): substrates
Compound: H-SerProPheArg-[^3 H]anilide (H-SPFR-{(3H)anilide})

activity as substrate for human urinary kallikrein (in words) (human urinary kallikrein [1]): suitable substrates
Compound: N=C(N)NCCC[C@H](NC(=O)[C@H](Cc1ccccc1)NC(=O)[C@@H]1CCCN1C(=O)[C@H](CO)NC(=O)[C@@H](N)Cc1ccccc1)C(=O)NCc1ccc(I)cc1 [H-PheSerProPheArg-4-iodobenzylamide] (H-FSPFR-X3)

activity as substrate for human urinary kallikrein (in words) (human urinary kallikrein [1]): suitable substrates
Compound: N=C(N)NCCC[C@H](NC(=O)[C@H](Cc1ccccc1)NC(=O)[C@@H]1CCCN1C(=O)[C@@H](N)CO)C(=O)NCc1cccc(I)c1 [H-SerProPheArg-3-iodobenzylamide] (H-SPFR-X2)
